Common to all, as to experiment: growth of human tumour cells (NCI), 48 h
The test system of experiment [1] is ACHN renal.
Experiment [2] has as its system KM20L2 colon.
The test system of experiment [3] is NCI-H522 lung.
Experiment [4] deals with SN12C renal.
Experiment [5] relates to SNB-19 CNS.
The subject of experiment [6] is SNB-75 CNS.
The test system of experiment [7] is SNB-78 CNS.
The subject of experiment [8] is UO-31 renal.
For experiment [9], the system named is OVCAR-8 ovarian.
Experiment [10] relates to DU-145 prostate.

Each structure is given as a SMILES string.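 Step 1: Grow cells in 96-well plates. Step 2: Expose to compound for 48 hours at 5 concentrations. Step 3: Interpolate endpoints linearly; if unreached, use highest concentration. GI50: concentration for 50% inhibition of growth. TGI denotes the concentration required for complete inhibition of growth.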

As to `COC(=O)CCC(=O)C(C#N)c1ccc(Cl)cc1Cl` (stereo not drawn), the TGI in experiment [1], in experiment [2], in experiment [3], in [4], in experiment [5] and in experiment [6] was more than 100 µM in each case. Further, the TGI in experiment [7] and in [8] was more than 100 µM throughout.
For the molecule `NC(CCCNCc1ccccc1O)C(=O)O` (stereo not drawn), the TGI in experiment [1], in experiment [2], in [3], in experiment [9], in experiment [4] and in experiment [5] was more than 100 µM in each case. The TGI in experiment [6], in experiment [7] and in [8] was more than 100 µM each time.
With `[O-][N+]1=C(c2ccccc2)COc2ccccc21`, the TGI in [1], in experiment [2], in experiment [3], in experiment [9], in experiment [4] and in experiment [5] was more than 100 µM each time. Further, the TGI in [6], in experiment [7] and in experiment [8] was more than 100 µM in each case.
`C/C(CN1C(=O)c2ccccc2C1=O)=N\NS(C)(=O)=O`: the TGI in [1], in experiment [2], in experiment [3], in experiment [9], in experiment [4] and in [5] was more than 100 µM in each case. Moreover, the TGI in experiment [6], in experiment [7] and in [8] was more than 100 µM throughout.
On to `Clc1ccc(CCn2cncn2)c(Cl)c1`, for which the TGI in experiment [1], in experiment [2], in experiment [3], in [9], in experiment [4] and in experiment [5] was more than 100 µM throughout. Moreover, the TGI in [6], in experiment [7] and in [8] was more than 100 µM each time.
In the case of `C/C(CC(=O)Nc1ccc([N+](=O)[O-])cc1)=N/N=C(N)N`, the TGI in [1], in [2], in [3], in [9], in experiment [6] and in experiment [7] was more than 100 µM throughout. This molecule also displayed a TGI in experiment [8] of more than 100 µM.
Consider `N#Cc1ccccc1/C=N/O`, for which the TGI in experiment [1], in [2], in [3], in [9], in experiment [4] and in experiment [5] was more than 100 µM each time. The TGI in experiment [6], in experiment [7] and in experiment [8] was more than 100 µM each time.
`Cc1cc2c(=O)cc(-c3ccc(C(=O)O)cc3)oc2c(C(=O)O)c1C`: the TGI in experiment [1], in experiment [2], in experiment [3], in experiment [9], in experiment [4] and in experiment [5] was more than 100 µM each time. Also, the TGI in experiment [6], in experiment [7] and in experiment [8] was more than 100 µM in each case.
Take `O=C(Nc1ccc(Cl)cc1Cl)/C(Cl)=C1/Sc2ccccc2NC1=O`: the TGI in [1] was 78.9 µM; in experiment [2], more than 100 µM; in experiment [3] it was 49 µM; in [9], more than 100 µM; in experiment [4], more than 100 µM; in experiment [5] it was more than 100 µM. The TGI in experiment [6] was 85.9 µM; in [7], more than 100 µM; in experiment [8], 77.2 µM.
`O=C(Cc1nc2ccccc2s1)NC12CC3CC(CC(C3)C1)C2`: the TGI in experiment [1], in [2], in experiment [3], in experiment [9], in experiment [4] and in experiment [5] was more than 100 µM in each case. For the same molecule, the TGI in experiment [6], in experiment [7] and in experiment [8] was more than 100 µM in each case.
In the case of `C=C1CCC2C(C)(CO)C(O)CCC2(C)C1CC(O)C1=CCOC1=O` (stereo not drawn), the TGI was more than 100 µM in experiment [1]; more than 100 µM in [2]; 20.3 µM in experiment [3]; more than 100 µM in [9]; more than 100 µM in experiment [4]; more than 100 µM in experiment [5]. Moreover, the TGI in experiment [6] and in experiment [8] was more than 100 µM each time.
Take `Cn1c(-c2ccccc2)c/c(=N\NS(C)(=O)=O)c2cc(S(=O)(=O)O)ccc21`: the TGI in experiment [1], in [2], in experiment [3], in experiment [9], in experiment [4] and in experiment [5] was more than 100 µM each time. Also, the TGI in experiment [6], in [7] and in [8] was more than 100 µM in each case.
With `COC(=O)c1cc(O)ccc1NC(=O)c1ccc(O)cc1`, the TGI in [1], in experiment [2], in experiment [3], in [9], in experiment [5] and in experiment [6] was more than 100 µM throughout. The TGI in experiment [7] and in experiment [8] was more than 100 µM throughout.
Regarding `O=S(=O)(c1ccccc1)C1CN(Cc2ccccc2)CCN(Cc2ccccc2)C1`, the TGI is more than 100 µM in experiment [1]; more than 100 µM in experiment [10]; more than 100 µM in experiment [2]; 34.1 µM in experiment [3]; more than 60.3 µM in experiment [9]; more than 100 µM in experiment [4]. The results for the TGI in experiment [5], in experiment [6] and in experiment [8] were more than 100 µM, more than 100 µM and 77.3 µM, respectively.
As for `O=[N+]([O-])c1ccc(C2N3CCCCC3[C@@H]3c4[nH]c5ccccc5c4CCN23)cc1` (stereo partly drawn), the TGI in experiment [1] was 43.8 µM; in experiment [2] it was 24.5 µM; in experiment [9], more than 100 µM; in [4] it was 32.3 µM; in [5], 67.1 µM; in experiment [6], 3.29 µM. Besides, the TGI in experiment [7] is 21.6 µM; in experiment [8], 81.8 µM.
For the molecule `O=C1CC23CC(=O)CC2(C1)c1ccccc1C3=O` (stereo not drawn), the TGI in [1], in [2], in experiment [3], in experiment [9], in experiment [4] and in experiment [5] was more than 100 µM each time. The TGI in [6], in experiment [7] and in [8] was more than 100 µM each time.
On to `Cn1c(C2CC(C)(C)c3c2c2ccccc2n3C)cc2ccccc21` (stereo not drawn), for which the TGI in experiment [1], in experiment [2], in experiment [3], in experiment [9], in experiment [4] and in experiment [5] was more than 304 µM each time.
As to `COc1cc2c3c(n(CCCN4CCOCC4)c(=O)c2cc1OC)-c1cc2c(cc1C3=O)OCO2`, the GI50 is 0.5 µM in [1]; 0.612 µM in experiment [10]; 3.97 µM in experiment [3]; 3.62 µM in experiment [9]; 0.821 µM in [4]; more than 38.6 µM in [5]. Also, the GI50 in experiment [6] was 8.29 µM; in experiment [8], 5.87 µM. The TGI in experiment [1] was more than 100 µM; in [10], more than 21.6 µM; in experiment [3] it was more than 100 µM; in experiment [9], more than 100 µM; in experiment [4] it was more than 100 µM; in experiment [5], more than 100 µM. The TGI in [6] and in experiment [8] was more than 100 µM each time.
Consider `CN(C)CCOc1cccc(NC2=C(Cl)C(=O)C(Nc3cccc(OCCN(C)C)c3)=C(Cl)C2=O)c1`, for which the GI50 in [1] was 0.219 µM; in [10], 0.366 µM; in [3], 0.194 µM; in experiment [9], 1.13 µM; in experiment [4], 0.427 µM; in [5] it was 1.72 µM. For the same molecule, the GI50 in [6] is 1.93 µM; in [8], 0.498 µM. Besides, the TGI in experiment [1] came to 0.465 µM; in experiment [10], 1.27 µM; in [3], 0.46 µM; in experiment [9], 2.91 µM; in [4], 0.886 µM; in experiment [5], 3.31 µM. Also, the figures for the TGI in [6] and in experiment [8] were 4.87 µM and 0.979 µM, respectively.
For the molecule `FC(F)(F)c1ccccc1C=NC12CC3CC(CC(C3)C1)C2`, the TGI in experiment [1], in [2], in experiment [9], in experiment [4], in experiment [5] and in experiment [6] was more than 100 µM throughout. Moreover, the TGI in experiment [7] was more than 100 µM; in experiment [8], 12.1 µM.
Consider `Cn1c2ccccc2c(=S)c2cc(NC(=O)CCCCC(=O)Nc3ccc4c(c3)c(=S)c3ccccc3n4C)ccc21`, for which the TGI in [1], in [10], in experiment [3], in experiment [9], in experiment [4] and in [5] was more than 100 µM in each case. Also, the TGI in experiment [6] and in experiment [8] was more than 100 µM throughout.
Turning to `COC1(C)Cc2c(c(C)c(O)c3c2C(=O)C=C(Cl)C3=O)O1` (stereo not drawn), the TGI is 56.5 µM in [1]; more than 100 µM in [10]; more than 100 µM in experiment [2]; 33 µM in experiment [3]; more than 73.6 µM in [9]; more than 96.7 µM in experiment [4]. Besides, the TGI in experiment [5], in experiment [6] and in experiment [8] was more than 100 µM throughout.
With `CCCNNC(=O)c1ccc(CNC(=O)/C=C/c2ccccc2)cc1`, the GI50 in experiment [1] is 0.143 µM; in experiment [10] it was 0.218 µM; in [3], 0.226 µM; in experiment [9], 0.114 µM; in experiment [4] it was 0.313 µM; in experiment [5], 0.314 µM. For the same molecule, the GI50 was 0.311 µM in experiment [6] and 0.0515 µM in experiment [8]. The TGI is 0.592 µM in [1]; more than 100 µM in [10]; more than 100 µM in experiment [3]; more than 100 µM in experiment [9]; more than 100 µM in experiment [4]; more than 100 µM in experiment [5]. The TGI in [6] was more than 23.5 µM; in [8], 0.771 µM.
For the molecule `O=C1/C(=c2\c3ccccc3n3c(=O)c4ccccc4nc23)Nc2ccccc21`, the TGI in [1], in experiment [10], in experiment [3], in [9], in experiment [4] and in experiment [5] was more than 100 µM each time. Besides, the TGI in [6] was more than 76.1 µM; in [8], more than 100 µM.
`O=C1C=CC(=O)N1CCCCCCCCCCN1C(=O)C=CC1=O`: the GI50 in experiment [1] is 4.85 µM; in experiment [10], 15.8 µM; in experiment [3], 1.6 µM; in [9] it was 13.9 µM; in [4], 15.1 µM; in experiment [5], 37.6 µM. Besides, the GI50 in [6] was 11.5 µM; in experiment [8], 4.92 µM. Also, the TGI in [1] was 16.8 µM; in experiment [10], 29.2 µM; in experiment [3], 3.41 µM; in experiment [9] it was 44 µM; in experiment [4], 29.5 µM; in experiment [5], more than 100 µM. For the same molecule, the TGI was determined as 24.4 µM in experiment [6] and 19.6 µM in experiment [8].
Turning to `C(#Cc1ccccc1C#Cc1ccccn1)c1ccc(OCCCCCCOc2ccc(C#Cc3ccccc3C#Cc3ccccn3)cc2)cc1`, the GI50 in [1] is 1.2 µM; in experiment [10] it was 6.36 µM; in [3], 2.55 µM; in experiment [9] it was 4.16 µM; in experiment [4], 2.35 µM; in [5], 4.39 µM. Further, the GI50 in experiment [6] was 5.26 µM; in experiment [8], 2.02 µM. For the same molecule, the TGI in [1] worked out at 7.95 µM; in experiment [10] it was 13 µM; in experiment [3] it was 13.1 µM; in [9], 14.6 µM; in [4] it was 11.6 µM; in experiment [5], 11.4 µM. In addition, the TGI was found to be 13.8 µM in experiment [6] and 21.4 µM in experiment [8].
In the case of `Cc1cc(Cl)ccc1Nc1nc(C(F)(F)F)ccc1C(=O)N/N=C/c1ccc(F)cc1`, the GI50 in experiment [1] was 2.48 µM; in experiment [10], 3.46 µM; in experiment [3], 2.4 µM; in [9], 1.48 µM; in experiment [4], 2.56 µM; in [5], 2.11 µM. The values for the GI50 in [6] and in experiment [8] were 1.55 µM and 1.71 µM, respectively. Moreover, the TGI was 10.8 µM in [1]; 13.8 µM in experiment [10]; 8.12 µM in [3]; 6.33 µM in [9]; 11.4 µM in [4]; 12 µM in [5]. Also, the TGI in [6] came out at 9.45 µM; in experiment [8] it was 5.35 µM.

The record behind these values is PubChem BioAssay (NCI).
